Assay [1] has as its target T1, Orexin/Hypocretin receptor type 1 (Homo sapiens, UniProt O43613).
T1 sequence (O43613 whole entry): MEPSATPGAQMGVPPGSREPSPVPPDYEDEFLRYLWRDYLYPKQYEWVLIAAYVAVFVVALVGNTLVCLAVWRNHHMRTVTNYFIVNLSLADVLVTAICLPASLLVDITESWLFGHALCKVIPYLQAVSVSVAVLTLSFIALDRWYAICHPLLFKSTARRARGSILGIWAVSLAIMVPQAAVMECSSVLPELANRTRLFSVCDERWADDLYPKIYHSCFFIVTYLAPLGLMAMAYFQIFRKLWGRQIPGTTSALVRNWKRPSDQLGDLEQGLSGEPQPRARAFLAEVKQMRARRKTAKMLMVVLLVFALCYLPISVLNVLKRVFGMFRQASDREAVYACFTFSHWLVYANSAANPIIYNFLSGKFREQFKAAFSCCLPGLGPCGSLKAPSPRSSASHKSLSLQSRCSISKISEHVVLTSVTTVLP
As to the kind of experiment: Inhibition of human orexin 1.

The target of assay [2] is T2, Orexin receptor type 2 (Homo sapiens, UniProt O43614).
T2 sequence (O43614 whole entry): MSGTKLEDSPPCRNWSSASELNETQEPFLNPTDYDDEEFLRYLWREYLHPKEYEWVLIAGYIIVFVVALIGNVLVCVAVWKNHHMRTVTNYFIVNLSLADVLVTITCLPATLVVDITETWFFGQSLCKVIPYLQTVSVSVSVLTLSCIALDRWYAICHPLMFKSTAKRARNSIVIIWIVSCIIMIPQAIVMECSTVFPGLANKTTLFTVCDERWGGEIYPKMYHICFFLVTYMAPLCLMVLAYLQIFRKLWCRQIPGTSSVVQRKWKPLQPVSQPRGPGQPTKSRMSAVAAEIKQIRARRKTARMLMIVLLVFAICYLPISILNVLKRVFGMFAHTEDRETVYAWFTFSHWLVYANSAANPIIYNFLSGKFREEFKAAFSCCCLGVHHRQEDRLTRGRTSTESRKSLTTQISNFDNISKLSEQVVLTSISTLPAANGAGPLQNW
As to the kind of experiment: Inhibition of human orexin 2.

Assay [3] can be described thus: Displacement of [125I]-Ang II from rat liver membrane AT1R incubated for 3 hrs. In kind it is cell membranes. Background: Displacement assays read how much labelled ligand stays bound in the presence of the test substance.
Assay [4] is described as follows: Displacement of [125I]-Ang II from rabbit uterine membrane AT2R incubated for 3 hrs in presence of DuP 753. Type of assay: cell membranes, Oryctolagus cuniculus, Uterus.
For assay [5], the target named is T3, Orexin/Hypocretin receptor type 1 (Homo sapiens) (UniProt O43613).
T3 sequence (whole entry): T1 sequence (O43613 whole entry)
Briefly: Antagonist activity at human OX1 receptor. The conditions noted are these: filed as antagonist.

Where only a bound is given, the exact number is not on record here.

Results on 4 compounds are retold here after ChEMBL document CHEMBL5230126, “Cyclic tailor-made amino acids in the design of modern pharmaceuticals” (Eur J Med Chem, 2020).

As to `Cc1ccc(-c2ncccn2)c(C(=O)N2C[C@@H]3C[C@@H]3C[C@H]2CNc2nnc(C(F)(F)F)s2)n1`, the inhibitory constant (Ki) in assay [1] is 0.0794 µM; in assay [2], 1.58 µM. For the compound `Cc1cc(Cn2cnc3c2C[C@@H](C(=O)O)N(C(=O)C(c2ccccc2)c2ccccc2)C3)ccc1N(C)C`, the figures for the 50% inhibitory concentration (IC50) in assay [3] and in assay [4] were > 10 µM and 0.0069 µM, respectively. As to `Cc1ccc(-c2cnccn2)c(C(=O)N2CCC3(CC3)C[C@H]2CNc2cccc(C(F)(F)F)n2)c1`, in assay [5], the pKb was found to be 8. For `COc1ccc2c(c1OCc1ccccc1)C[C@@H](C(=O)O)N(C(=O)C(c1ccccc1)c1ccccc1)C2` [OLODANRIGAN], the values for the half-inhibitory concentration (IC50) in assay [3] and in assay [4] were > 10 µM and 0.00058 µM, respectively.

For orientation: Ki means a dissociation constant, usually derived from enzyme kinetics or from competition with a known ligand. The low end stands for a stronger hold on the target, the high end for a looser hold on the target. In general, IC50 refers to the concentration that inhibits the measured activity by half. The pKb is the negative decadic logarithm of the Kb, by convention in mol/L. Low readings indicate a high Kb, high ones a low Kb.
